Results from ChEMBL document CHEMBL4270495, “Oleanane-, ursane-, and quinone methide friedelane-type triterpenoid derivatives: Recent advances in cancer treatment” (Eur J Med Chem, 2017).
pIC50: −log10 of the molar value.

Tests used:
[1] = system: MCF7; experiment: Cytotoxicity in human MCF7 cells assessed as reduction in cell viability; type: functional, cell-based
[2] = system: HepG2; experiment: Cytotoxicity in human HepG2 cells assessed as reduction in cell viability; type: functional, cell-based
[3] = system: HeLa; experiment: Cytotoxicity in human HeLa cells assessed as reduction in cell viability incubated for 72 hrs by MTT assay; type: functional, cell-based
[4] = system: HT-29; experiment: Cytotoxicity in human HT-29 cells assessed as reduction in cell viability incubated for 72 hrs by MTT assay; type: functional, cell-based; settings: HT-29, 72 h
[5] = system: MCF7; experiment: Cytotoxicity in human MCF7 cells assessed as reduction in cell viability incubated for 72 hrs by MTT assay; type: functional, cell-based; settings: MCF7, 72 h
[6] = system: BJ; experiment: Cytotoxicity in human BJ cells assessed as reduction in cell viability incubated for 72 hrs by MTT assay; type: functional, cell-based
[7] = system: HepG2; experiment: Cytotoxicity in human HepG2 cells assessed as reduction in cell viability incubated for 72 hrs by cell-titer Glo asay; type: functional, cell-based; settings: HepG2, 72 h
[8] = system: Huh-7; experiment: Cytotoxicity in human HuH7 cells assessed as reduction in cell viability incubated for 72 hrs by cell-titer Glo asay; type: functional, cell-based; settings: Huh-7, 72 h
[9] = system: Hep 3B2; experiment: Cytotoxicity in human Hep3B cells assessed as reduction in cell viability incubated for 72 hrs by cell-titer Glo asay; type: functional, cell-based
[10] = system: HL-60; experiment: Cytotoxicity in human HL60 cells assessed as reduction in cell viability incubated for 24 hrs by MTT assay; type: functional, cell-based; settings: HL-60, 24 h
[11] = system: MCF7; experiment: Cytotoxicity in human MCF7 cells assessed as reduction in cell viability incubated for 48 hrs by SRB assay; type: functional, cell-based; settings: MCF7, 48 h
[12] = system: A549; experiment: Cytotoxicity in human A549 cells assessed as reduction in cell viability incubated for 48 hrs by SRB assay; type: functional, cell-based; settings: A549, 48 h
[13] = system: PC-3; experiment: Cytotoxicity in human PC3 cells assessed as reduction in cell viability incubated for 48 hrs by SRB assay; type: functional, cell-based; settings: PC-3, 48 h
[14] = system: MDA-MB-231; experiment: Cytotoxicity in human MDA-MB-231 cells assessed as reduction in cell viability incubated for 24 hrs by MTT assay; type: functional, cell-based; settings: MDA-MB-231, 24 h
[15] = system: MCF7; experiment: Cytotoxicity in human MCF7 cells assessed as reduction in cell viability incubated for 24 hrs by MTT assay; type: functional, cell-based; settings: MCF7, 24 h
[16] = system: 4T1; experiment: Cytotoxicity in mouse 4T1 cells assessed as reduction in cell viability incubated for 24 hrs by MTT assay; type: functional, cell-based; settings: 4T1, 24 h
[17] = system: HMEC; experiment: Cytotoxicity in human HMEC cells assessed as reduction in cell viability incubated for 48 hrs by SRB assay; type: cell-based
[18] = Cytotoxicity in human A375-S2 cells assessed as reduction in cell viability incubated for 48 hrs by MTT assay; type: functional, cell-based; settings: A375-S2, 48 h
[19] = system: AGS; experiment: Antiproliferative activity in human AGS cells incubated for 3 days by MTT assay; type: functional, cell-based; settings: 72 h
[20] = system: NCI-H1299; experiment: Cytotoxicity in human NCI-H1299 cells assessed as reduction in cell viability; type: functional, cell-based
[21] = Cytotoxicity in human BCP-ALL cells assessed as reduction in cell viability; type: functional, cell-based
[22] = system: T-ALL; experiment: Cytotoxicity in human T-ALL cells assessed as reduction in cell viability; type: functional, cell-based
[23] = system: Daudi; experiment: Cytotoxicity in human Daudi cells assessed as reduction in cell viability; type: functional, cell-based
[24] = system: HL-60; experiment: Cytotoxicity in human HL60 cells assessed as reduction in cell viability; type: functional, cell-based
[25] = system: A549; experiment: Cytotoxicity in human A549 cells assessed as reduction in cell viability incubated for 24 hrs by MTT assay; type: functional, cell-based; settings: A549, 24 h
[26] = system: A549; experiment: Potency index, ratio of IC50 for Iressa to IC50 for test compound for cytotoxicity in human A549 cells assessed as reduction in cell viability incubated for 24 hrs by MTT assay; type: functional
[27] = system: MDA-MB-231; experiment: Antiproliferative activity in human MDA-MB-231 cells assessed as reduction in cell viability incubated for 24 to 72 hrs by MTT assay; type: functional, cell-based
[28] = system: MDA-MB-231; experiment: Inhibition of cell invasion in human MDA-MB-231 cells; type: functional
[29] = system: Bel-7402; experiment: Cytotoxicity in human Bel7402 cells assessed as reduction in cell viability incubated for 72 hrs by MTT assay; type: functional, cell-based; settings: Bel-7402, 72 h
[30] = system: H4; experiment: Cytotoxicity in human H4 cells assessed as reduction in cell viability incubated for 72 hrs by MTT assay; type: functional, cell-based; settings: H4, 72 h
[31] = system: COLO 205; experiment: Cytotoxicity in human COLO205 cells assessed as reduction in cell viability incubated for 72 hrs by MTT assay; type: functional, cell-based; settings: COLO 205, 72 h
[32] = system: HT-29; experiment: Cytotoxicity in human HT-29 cells assessed as reduction in cell viability incubated for 96 hrs by SRB assay; type: functional, cell-based; settings: HT-29, 96 h
[33] = system: A549; experiment: Cytotoxicity in human A549 cells assessed as reduction in cell viability incubated for 96 hrs by SRB assay; type: functional, cell-based; settings: A549, 96 h
[34] = system: NIH3T3; experiment: Cytotoxicity in mouse NIH/3T3 cells assessed as reduction in cell viability incubated for 96 hrs by SRB assay; type: cell-based; settings: NIH3T3, 96 h
[35] = system: BGC-823; experiment: Cytotoxicity in human BGC823 cells assessed as reduction in cell viability incubated for 72 hrs by MTT assay; type: functional, cell-based; settings: BGC-823, 72 h
[36] = system: PC-3; experiment: Cytotoxicity in human PC3 cells assessed as reduction in cell viability incubated for 72 hrs by MTT assay; type: functional, cell-based; settings: PC-3, 72 h
[37] = system: PC-3; experiment: Cytotoxicity in human PC3 cells assessed as reduction in cell viability incubated for 48 hrs by XTT assay; type: functional, cell-based; settings: PC-3, 48 h
[38] = system: ASPC1; experiment: Growth inhibition of human AsPC1 cells incubated for 72 hrs by MTT assay; type: functional, cell-based; settings: ASPC1, 72 h

Compound: CC(=O)O/N=C1\CC[C@]2(C)[C@H]3CC=C4[C@@H]5[C@@H](C)[C@H](C)CC[C@]5(C(=O)O)CC[C@@]4(C)[C@]3(C)CC[C@H]2C1(C)C
- pIC50 [1]: 5.47
- pIC50 [2]: 5.37

Compound: COC(=O)[C@]12CC[C@@H](C)[C@H](C)[C@H]1C1=CC(=O)[C@@H]3[C@@]4(C)C(C=O)=C[C@@](C)(COS(C)(=O)=O)[C@@H]4CC[C@@]3(C)[C@]1(C)CC2
- pIC50 [3]: 6.62
- pIC50 [4]: 6.23
- pIC50 [5]: 6.19
- pIC50 [6]: 5.61

Compound: CC1=C(O)C(=O)C=C2C1=CC=C1[C@@]2(C)CC[C@@]2(C)[C@@H]3C[C@](C)(C(=O)NCCc4ccccc4)CC[C@]3(C)CC[C@]12C
- pIC50 [7]: 5.45
- pIC50 [8]: 5.98
- pIC50 [9]: 5.97

Compound: CC1=C(O)C(=O)C=C2C1=CC=C1[C@@]2(C)CC[C@@]2(C)[C@@H]3C[C@](C)(C(=O)OCc4ccccc4)CC[C@]3(C)CC[C@]12C
- pIC50 [7]: 5.37
- pIC50 [8]: 5.67
- pIC50 [9]: 5.56

Compound: CCC(=O)O[C@H]1CC[C@@]2(C)[C@@H](CC[C@]3(C)[C@@H]2CC=C2[C@@H]4[C@@H](C)[C@H](C)CC[C@]4(C)CC[C@]23C)[C@@]1(C)C(=O)O
- pIC50 [10]: 4.85
- pIC50 [11]: 4.54
- pIC50 [12]: 4.54
- pIC50 [13]: 4.51

Compound: CC(=O)Oc1ccccc1C(=O)O[C@H]1CC[C@]2(C)[C@H]3CC=C4[C@@H]5[C@@H](C)[C@H](C)CC[C@]5(C(=O)O)CC[C@@]4(C)[C@]3(C)CC[C@H]2C1(C)C
- pIC50 [14]: 4.19
- pIC50 [15]: 4.14
- pIC50 [16]: 4.21
- pIC50 [17]: < 4.00

Compound: CC1(C)CC[C@]2(C(=O)OCc3cn(-c4ccc([N+](=O)[O-])cc4)nn3)CC[C@]3(C)C(=CC[C@@H]4[C@@]5(C)CCC(=O)C(C)(C)[C@@H]5CC[C@]43C)[C@@H]2C1
- pIC50 [18]: > 5.52

Compound: CC1(C)CC[C@]2(C(=O)O)CC[C@]3(C)C(=CC[C@@H]4[C@@]5(C)CC[C@H](OC(=O)CCc6cn(-c7ccc(Cl)cc7)nn6)C(C)(C)[C@@H]5CC[C@]43C)[C@@H]2C1
- pIC50 [19]: 5.05

Compound: CC1=C(O)C(=O)C=C2C1=CC=C1[C@@]2(C)CC[C@@]2(C)[C@@H]3C[C@](C)(C(=O)O)CC[C@]3(C)CC[C@]12C [CELASTROL]
- pIC50 [20]: > 6.00
- pIC50 [21]: > 6.00
- pIC50 [22]: > 6.00
- pIC50 [23]: > 6.00
- pIC50 [24]: > 6.00

Compound: CC1(C)CC[C@]2(C(=O)O)CC[C@]3(C)C(=CC[C@@H]4[C@@]5(C)CC[C@H](O[C@@H]6OC[C@H](O)[C@H](O[C@H]7O[C@H](CO)[C@@H](O)[C@H](O)[C@@H]7O)[C@H]6O)[C@@](C)(CO)[C@@H]5CC[C@]43C)[C@H]2C1
- pIC50 [15]: 4.71
- pIC50 [25]: 5.18
- Ratio IC50 [26]: 4

Compound: CC1(C)CC[C@]2(C(=O)O)CC[C@]3(C)C(=CC[C@@H]4[C@@]5(C)CC[C@H](OC(=O)NS(=O)(=O)c6ccc(F)cc6)C(C)(C)[C@@H]5CC[C@]43C)[C@@H]2C1
- pIC50 [27]: 5.47
- inhibition (INH) [28]: 72.5%

Compound: CC(=O)Oc1cc2c(c(C)c1OC(C)=O)C(S(=O)(=O)O)C=C1C2(C)CC[C@@]2(C)[C@@H]3C[C@](C)(C(=O)O)CC[C@]3(C)CC[C@]12C (single isomer, unassigned)
- pIC50 [29]: 5.76
- pIC50 [30]: 5.86
- pIC50 [31]: 7.22

Compound: COC(=O)[C@]12CC[C@@H](C)[C@H](C)[C@H]1C1=CC(=O)[C@@H]3[C@@]4(C)C(C=O)=C[C@@](C)(CO)[C@@H]4CC[C@@]3(C)[C@]1(C)CC2
- pIC50 [3]: 6.52
- pIC50 [4]: 6.23
- pIC50 [5]: 6.13
- pIC50 [6]: 5.48

Compound: COC(=O)[C@]12CCC(C)(C)C[C@H]1C1=CC[C@@H]3[C@@]4(C)C[C@@H](O)[C@H](OS(N)(=O)=O)C(C)(C)[C@@H]4CC[C@@]3(C)[C@]1(C)CC2
- pIC50 [32]: 5.46
- pIC50 [33]: 5.40
- pIC50 [34]: 5.66

Compound: CCCC(=O)O[C@H]1CC[C@]2(C)[C@H]3CC=C4[C@@H]5CC(C)(C)CC[C@]5(C(=O)n5ccc(=O)[nH]c5=O)CC[C@@]4(C)[C@]3(C)CC[C@H]2C1(C)C
- pIC50 [35]: 6.66
- pIC50 [36]: 6.55

Compound: C[C@H]1[C@H](C)CC[C@]2(C)CC[C@]3(C)C(=CC(=O)[C@@H]4[C@@]5(C)CC[C@H](OC(=O)/C=C/c6ccccc6)[C@](C)(C(=O)O)[C@@H]5CC[C@]43C)[C@H]12
- pIC50 [37]: 5.44

Compound: COC(=O)[C@]12CCC(C)(C)C[C@H]1C1=CC[C@@H]3[C@@]4(C)C/C(=C/n5ccnc5)C(=O)C(C)(C)[C@@H]4CC[C@@]3(C)[C@]1(C)CC2
- pIC50 [38]: > 5.30
